Entries after “also recorded” stand apart in the source; their conditions may differ. Read-outs that look alike come from different tables or passages of the source.
What was measured:
QT interval = assay: Effects on the QT interval (ECG and Holter recordings, Bazett correction); conditions: for QTc interval, Baseline: before dosing
Protocol: The effects of the study drugs on the QT interval were assessed by comparing QT intervals before dosing with QT intervals 4 h after dosing, and at the 2 wk follow-up. […] QT intervals were measured manually and electronically (Rozinn Electronics, Glendale, New York, United States). […] Correction of the QT interval for heart rate (i.e., QTc) was performed using Bazett's formula [27].

[1] = cited from earlier work
[2] = system: CQ-resistant P. falciparum; conditions: cited from earlier work
healthy volunteers [3] = assay: Clinical adverse events (weekly diaries, blinded relatedness assessment), Phase I RCT; type: in vivo, human
Protocol: Adverse events (AEs) were recorded in weekly diaries provided to each volunteer. The relatedness of these AEs to the study drugs was assessed by two physicians (FM, CH) based on temporal association and biological plausibility using five categories: definitely not, unlikely, possibly, probably, and definitely related. The AEs reported in this manuscript include all AEs assessed as possibly, probably, or definitely related.
Quantitative data are presented as the mean ± standard deviation or as median and range, as appropriate. […] Due to a lack of normality, the nonparametric Mann-Whitney U test was used to compare independent samples; the Wilcoxon or Friedman test (whichever was appropriate) was used to compare repeated measures of the QTc interval. All statistical tests were two-sided with an α (significance level) of 0.05. Analyses were performed using the SPSS 11.0 statistical software (SPSS, Chicago, Illinois, United States). All analyses were based on allocation by intent-to-treat.

animals = conditions: preclinical studies; cited from earlier work
[4] = system: CQ-resistant P. falciparum; conditions: CQ-resistant P. falciparum in the squirrel monkey; cited from earlier work
healthy volunteers [5] = assay: Post-dose clinical and laboratory follow-up (hematology, chemistry, organ toxicity); type: in vivo, human
P. cynomolgi = conditions: cited from earlier work
[6] = Blood pharmacokinetics after oral dosing (fluorescence HPLC, noncompartmental WinNonlin model); type: in vivo, human; conditions: for Cmax / Vd/F / MRT / Tmax / half-life / AUC: human, whole blood; for Cmax: read-out: Cmax; for MRT: read-out: MRT (converted); for AUC: po
Protocol: Study drugs were administered in the GCRC on an empty stomach between 8 and 9 AM the morning after admission (after fasting for ≥ 10 h).

[7] = Urinary excretion and renal clearance (24-hour urine collections, days 1-3)
[8] = 1,750 mg AQ-13, 1,500 mg CQ, mean ± SD
[9] = 600/700 mg AQ-13, 600 mg CQ, mean ± SD
[10] = 1,500 mg CQ (n = 15) / 1,750 mg AQ-13 (n = 14)
[11] = 100, 300 mg doses, n = 16 per drug
[12] = 600/700 mg, AQ-13 n = 25, CQ n = 24
[13] = all doses combined, 63 volunteers per drug
[14] = 2 wk follow-up, individual participant
[15] = 1750 mg, 1,750 mg oral over 3 d, median (range)
[16] = single oral 600 mg dose, median (range)
[17] = single oral 700 mg adjustment dose, median (range)
[18] = days 1-3, 1,750 mg AQ-13 / 1,500 mg CQ

With `CCN(CC)CCCNc1ccnc2cc(Cl)ccc12` [AQ-13] the “mean QTc prolongation after the first dose (day 1)” value (QT interval; 1,500 mg CQ (first 600 mg dose) / 1,750 mg AQ-13 (first 700 mg dose)) was 4 ms, the “additional QTc increase after the second dose (day 2)” value (QT interval; 1,500 mg CQ / 1,750 mg AQ-13) was 6 ms and the “QTc interval, Baseline” value (QT interval; 1,750 mg AQ-13 (n = 13), 1,500 mg CQ (n = 14), mean ± SD) was 397 ± 16 ms. The “QTc interval, 2 wk follow-up” value (QT interval; [8]) was 402 ± 13 ms, the “QTc interval, 4–5 h post-dose (day 1)” value (QT interval; [8]) was 401 ± 14 ms and the “QTc interval, 4–5 h post-dose (day 2)” value (QT interval; [8]) was 407 ± 11 ms. For the same compound, the “QTc interval, 4–5 h post-dose (day 3)” value (QT interval; [8]) was 400 ± 11 ms, the “mean QTc prolongation, females” value (QT interval; 1,750 mg AQ-13 / 1,500 mg CQ) was 12 ms and the “mean increase in the QTc interval from baseline” value (QT interval; 1,750 mg AQ-13 / 1,500 mg CQ, 4 h after the second dose on day 2) was 10 ms. The “QTc interval, Baseline” value (QT interval; 600/700 mg AQ-13 (n = 25), 600 mg CQ (n = 24), mean ± SD) was 403 ± 17 ms, the “QTc interval, 2 wk follow-up” value (QT interval; [9]) was 405 ± 18 ms and the “QTc interval, 4–5 h post-dose (day 1)” value (QT interval; [9]) was 414 ± 17 ms. For the same compound, the “maximal prolongation of the QTc interval from baseline at the individual level” value (QT interval; 600/700 mg dose) was 42 ms, the “maximal prolongation of the QTc interval from baseline at the individual level” value (QT interval; 1,500/1,750 mg dose) was 35 ms and the “mean increase in the QTc interval from baseline, females” value (QT interval; 4 h after 600 mg CQ or 600/700 mg AQ-13) was 18 ms. The “mean QTc interval change from baseline, males” value (QT interval; 4 h after 600 mg CQ or 600/700 mg AQ-13, not significant) was 1 ms, the “mean increase in the QTc interval from baseline” value (QT interval; 4 h after 600 mg CQ or 600 or 700 mg AQ-13) was 11 ms and the “arrhythmias or other cardiac AEs” value (QT interval; all doses) was “no arrhythmias or other cardiac AEs; also recorded: no cardiac AEs”. For the same compound, the “clearance in preclinical studies in comparison with CQ” value [1] was “cleared more rapidly than CQ”, the “oral bioavailability in comparison with CQ” value ([1]; rats and monkeys, GLP preclinical studies by SRI International) was “less than that of CQ” and the “activity against resistant malaria parasites in vitro” value [2] was “active against resistant malaria parasites”. The “related adverse events: None” value (healthy volunteers [3]; 10 mg dose, n = 8 per drug) was 0, the “Abdominal pain, number (%)” value (healthy volunteers [3]; [10]) was 1 (7%) and the “Blurred vision, number (%)” value (healthy volunteers [3]; [10]) was 2 (14%). The “Diarrhea, number (%)” value (healthy volunteers [3]; [10]) was 4 (29%), the “Difficulty focusing/visual floating objects, number (%)” value (healthy volunteers [3]; [10]) was 2 (14%) and the “Lightheadedness/Dizziness, number (%)” value (healthy volunteers [3]; [10]) was 7 (50%). For the same compound, the “Nausea, number (%)” value (healthy volunteers [3]; [10]) was 5 (36%), the “Vomiting, number (%)” value (healthy volunteers [3]; [10]) was 2 (14%) and the “Weakness/fatigue, number (%)” value (healthy volunteers [3]; [10]) was 2 (14%). The “Headache, number (%)” value (healthy volunteers [3]; 1,500 mg CQ (n = 15) / 1,750 mg AQ-13 (n = 14) over 3 d) was 5 (36%), the “Headache, volunteers with related AE, number (%)” value (healthy volunteers [3]; [11]) was 2 (12%) and the “Lightheadedness/Dizziness, number (%)” value (healthy volunteers [3]; [11]) was 0. The “Nausea, number (%)” value (healthy volunteers [3]; [11]) was 1 (6%), the “Abdominal pain, number (%)” value (healthy volunteers [3]; [12]) was 2 (8%) and the “Diarrhea, number (%)” value (healthy volunteers [3]; [12]) was 2 (8%). For the same compound, the “Ear symptoms, number (%)” value (healthy volunteers [3]; [12]) was 0, the “Headache, number (%)” value (healthy volunteers [3]; [12]) was 10 (40%) and the “Lightheadedness/Dizziness, number (%)” value (healthy volunteers [3]; [12]) was 4 (16%). For the same compound, the “Loss of appetite, number (%)” value (healthy volunteers [3]; [12]) was 3 (12%), the “Nausea, number (%)” value (healthy volunteers [3]; [12]) was 2 (8%) and the “Vomiting, number (%)” value (healthy volunteers [3]; [12]) was 2 (8%). For the same compound, the “drug-related GI symptoms, number of reports” value (healthy volunteers [3]; all doses combined) was 28 reports, the “drug-related lightheadedness/dizziness, volunteers/total” value (healthy volunteers [3]; [13]) was 11/63 and the “volunteers reporting one or more GI symptoms/total” value (healthy volunteers [3]; [13]) was 14/63. The “toxicity in animals in comparison with CQ” value (animals) was “no differences in toxicity”, the “activity in vivo in monkey model” value [4] was “active in vivo” and the “ALT in one participant with abnormal liver function tests” value (healthy volunteers [5]; [14]) was 149. For the same compound, the “AST in one participant with abnormal liver function tests” value (healthy volunteers [5]; [14]) was 135 U/l, the “alkaline phosphatase in one participant with abnormal liver function tests” value (healthy volunteers [5]; [14]) was 146 and the “bilirubin in one participant with abnormal liver function test” value (healthy volunteers [5]; [14]) was 1.5 mg/dL. The “volunteers with mildly abnormal liver function tests” value (healthy volunteers [5]; 2 wk follow-up, AQ-13 100 and 300 mg doses, CQ 1,500 mg dose) was “two”, the “hematologic or chemical toxicities on repeat laboratory testing” value (healthy volunteers [5]; 4 d after drug administration) was “no hematologic or chemical toxicities” and the organ toxicity (healthy volunteers [5]; any dose tested, inpatient exams, 2 and 4 wk follow-up) was “No hematologic, hepatic, renal, or other organ toxicity was observed; also recorded: no clinical evidence for end-organ toxicity”. The “activity in vivo in monkey model” value (P. cynomolgi; P. cynomolgi in the rhesus monkey) was “active in vivo”, the “activity in monkey models of human malaria compared with AQ-21” value (P. cynomolgi; both monkey models, ref Cogswell, et al., unpublished data) was “more active” and the “blood level one hour after dosing as % of Cmax” value ([6]; 600 mg oral dose) was 52%. For the same compound, the Cl/F ([6]; 1,750 mg oral over 3 d, median (range)) was 14.0 (6.8–20.3) l/h, the “median oral clearance (range of medians across dose levels)” value ([6]; 600 and 1,500/1,750 mg doses) was 14.0 to 14.7 L/h and the Cmax ([6]; 1750 mg, 1,750 mg oral over 3 d (700+700+350 mg), median (range)) was 3000 nM. It also gave a Vd/F [6, 15] of 6660 L, an MRT [6, 15] of 13.4 days and a Tmax ([6]; 1750 mg, 1,750 mg oral over 3 d, median (range), read-out: Tmax) of 1.14 days. The half-life ([6]; 1750 mg, 1,750 mg oral over 3 d, median (range), read-out: t½ (converted)) was 12.9 days, the Tmax ([6]; oral, 1,750 mg AQ-13 / 1,500 mg CQ, 27–28 h after the first dose, read-out: time of peak blood concentration after the second dose) was 0.125 to 0.167 days and the AUC ([6]; 600 mg, single oral 600 mg dose, median (range), read-out: AUCw1 (partial AUC for week 1)) was 71.8 µM·h. The AUC ([6]; 600 mg, single oral 600 mg dose, median (range), read-out: AUCτ (total area under the curve)) was 141 µM·h, the AUC ([6]; 700 mg, single oral 700 mg adjustment dose, median (range), read-out: AUCw1) was 96.3 µM·h and the AUC ([6]; 700 mg, single oral 700 mg adjustment dose, median (range), read-out: AUCτ) was 342 µM·h. The AUC ([6]; 1750 mg, 1,750 mg oral over 3 d, median (range), read-out: AUCw1) was 226 µM·h, the AUC ([6]; 1750 mg, 1,750 mg oral over 3 d, median (range), read-out: AUCτ) was 493 µM·h and the Vd/F [6, 16] was 6710 L. For the same compound, the Vd/F [6, 17] was 6830 L, the MRT [6, 17] was 23.5 days and the Tmax ([6]; single oral 700 mg adjustment dose, median (range), read-out: Tmax) was 0.167 days. It also gave a half-life ([6]; single oral 700 mg adjustment dose, median (range), read-out: t½ (converted)) of 17.9 days, a Cmax ([6]; single oral 600 mg dose (CQ base equivalent), median (range)) of 1400 nM and an MRT [6, 16] of 10.5 days. It also gave a Tmax ([6]; single oral 600 mg dose, median (range), read-out: Tmax) of 0.167 days, a half-life ([6]; single oral 600 mg dose, median (range), read-out: t½ (terminal elimination half-life) (converted)) of 14.3 days and a Cmax [6, 17] of 1600 nM. The linearity of pharmacokinetics ([6]; oral doses in healthy volunteers) was “linear pharmacokinetics”, the “Cl/F (apparent oral clearance)” value [6, 16] was 14.7 (7.0–31.1) l/h and the Cl/F [6, 17] was 11.8 (8.5–19.1) l/h. The “amount of unchanged drug recovered from 24 hour urine collections” value [7, 18] was 443 µmol, the “unchanged drug recovered from 24 hour urine collections, % of total oral dose” value [7, 18] was 8.4% and the CL renal ([7]; human, urine and whole blood, po, 1750 mg) was 55 mL/min.
